In paper PMC8703873, “Structure and Activity of a Selective Antibiofilm Peptide SK-24 Derived from the NMR Structure of Human Cathelicidin LL-37” (Pharmaceuticals, 2021):
Values after ≈ are worked out from the molar mass of the structure shown. Like-named read-outs stand apart in the source and are kept apart here. No end group written: not given here.

How the values were obtained:
S. aureus USA300 LAC [1] = assay: Membrane depolarization (DiBAC4(3)); assay type: cell-based, Staphylococcus aureus; conditions: DiBAC4(3) fluorescence; for Membrane depolarization ability (order, words): peptide 8 µM, similar trends at 16 and 32 µM
Experimental: The experiment was conducted as described. In brief, an overnight culture of S. aureus USA300 LAC was subcultured in a fresh TSB medium and grown to the exponential phase. Cells were spun using centrifugation and washed twice with PBS, and resuspended in twice the volume of PBS containing 25 mM glucose and incubated at 37 °C for 15 min. For membrane depolarization measurements, 500 nM (final concentration) of the dye DiBAC4 (3) (bis-(1,3- dibutylbarbituric acid) trimethine oxonol) (AnaSpec, San Jose, CA, USA) was added and vortexed gently. Aliquots of 90 μL of the energized bacteria solution were loaded to the wells, and the plate was fed into a FLUOstar Omega microplate reader. Fluorescence was read for 20 min at excitation and emission wavelengths of 485 and 520 nm, respectively, to get dye normalization. Then 10 μL of diluted peptide solutions were added and gently mixed. Fluorescence readings were recorded for 40 min, where Triton X-100 (0.1%) was used as a positive control.

[2] = HPLC retention time (measure of peptide hydrophobicity); assay type: physicochemical; conditions: chromatographic, Waters C8 symmetry hydrophobic column, as described in ref 34; used as indicator of peptide hydrophobicity
Source text: In the membrane-bound LL-37 structure determined by 3D NMR spectroscopy, a hydrophobic gap exists (Figure 1A). The location of a hydrophilic S9 on the hydrophobic surface of LL-37 splits the long helix into two hydrophobic domains (gold sticks). The SK-24 peptide we identified here corresponds to the long hydrophobic domain [26]. The amino acid sequence of SK-24, along with LL-37 and its derived antimicrobial peptides, is depicted in Figure 1B. Peptide parameters, including net charge, hydrophobic content, Boman index, GRAVY, hydrophobicity, and hydrophobic moment of each peptide, were calculated using online tools, such as the APD [8] and HeliQuest (Table 1). Except for the shortest RI-10 (net charge +3), LL-37 and its other derived peptides have net charges +5 or +6, above the average net charge (+3.3) of natural antimicrobial peptides registered in the APD [8, 35, 36]. Overall, the hydrophobic percentages (Pho) of these peptides calculated in the APD are proportional to the hydrophobicity and hydrophobic moment calculated by HeliQuest in Table 1. Of note, LL-37 has the highest net charge (+6) and Boman index but the lowest Pho%, GRAVY, and hydrophobic moment.
All peptides were chemically synthesized and purified to >95% (Genemed Synthesis, San Antonio, TX, USA). The quality of each peptide was determined based on mass spectrometry (MS) and high-performance liquid chromatography (HPLC). Peptide stock solutions were freshly made by solubilizing in autoclaved distilled water, and their concentrations were quantitated using UV spectroscopy based on the absorbance difference at 215 and 225 nm as described. Peptide retention time was measured on a Waters C8 symmetry hydrophobic column as described. Other chemicals were purchased from Sigma (St. Louis, MO, USA) unless specified.

E. faecium V284-17 = assay type: cell-based, Enterococcus faecium
Human red blood cells = assay: Hemolytic assay; assay type: cell-based; conditions: 1 h
Experimental: Human red blood cells (hRBCs, the UNMC Blood Bank) were washed three to five times with saline (Fisher Scientific, Waltham, MA, USA) at 800 g for 10 min each time, until the supernatant was clear. The supernatant was discarded, and hRBCs were suspended in saline at a final density of 2%. Ninety microliters of hRBC suspensions were added to each well of 96-well plates containing 10 µL of 10× serially diluted peptides. After incubation at 37 °C for 1 h, the plates were centrifuged at 1500 rpm for 5 min. About 80 µL of the supernatant was carefully pipetted to a new 96-well microplate and read at 545 nm to measure the amount of hemoglobin released. The positive control was 1% Triton X-100, and the negative control was saline. The percentage of hRBC lysis was calculated based on the hemoglobin released.

[3] = tested on: S. aureus USA300 LAC preformed biofilms; conditions: S. aureus USA300 LAC and other clinical strains (USA200, USA400, Mu50); cited from earlier work
Experimental: Here, we compared the antibiofilm activity of SK-24 with that of GF-17, GI-20, and 17BIPHE2 against the 24 h preformed biofilms of S. aureus USA300. […] Only SK-24 a ...

[4] = tested on: A. baumannii B28-16 preformed biofilms; assay: Disruption of preformed biofilms (XTT); assay type: cell-based, Acinetobacter baumannii; conditions: for Biofilm disruption: 72 h preformed biofilms, peptide 64 μM, highest concentration tested; for Disruption of 48 h biofilms: biofilms established for 48 h; for Disruption of 48 h biofilms / Reduction of 24 h biofilms: 24 h treatment; for Reduction of 24 h biofilms: biofilms established in 24 h
Experimental: (§1) The antibiofilm activities of peptides against the preformed biofilms of A. baumannii B28-16 and S. aureus USA300 LAC were evaluated as follows. Bacteria in the logarithmic growth phase were adjusted to a cell density of 10^5 colony forming unit (CFU)/mL. Two hundred microliter cells were seeded into each well of the 96-well plates. The plates were incubated at 37 °C to allow for the formation of biofilm for 24, 48, and 72 h, respectively. The planktonic cells were then removed, followed by a wash. The biofilms were then treated with 20 µL of 10× two-fold diluted peptides and 180 µL of fresh TSB media for 24 h at 37 °C. Cultures treated with water without peptide served as the positive control, and media treated with water was used as the negative control. To quantify the antibiofilm activity of the peptides, the XTT [2, 3-bis (2-methyloxy-4-nitro-5-sulfophenyl)-2H-tertazolium-5-carboxanilide] assay staining method was used to quantitate the live cells. Absorbance was read at 450 nm using a ChroMate microliter plate reader. The percentage biofilm growth for the peptide was plotted by assuming 100% biofilm growth in untreated bacterial control wells. Data were represented as mean ± standard deviation (SD). The data are statistically significant at p < 0.05. Plots were generated using GraphPad Prism v7 (GraphPad Software, San Diego, CA, USA).

K. pneumoniae E406-17 = assay type: cell-based, Klebsiella pneumoniae; conditions: for MIC: E406-17
Experimental: (§2) The antibiotic-resistant pathogens used in this study include the Gram-positive bacteria Enterococcus faecium V286-17 and Staphylococcus aureus USA300 LAC and the Gram-negative bacteria Klebsiella pneumoniae E406-17, Acinetobacter baumannii B28-16, Pseudomonas aeruginosa E411-17, and Escherichia coli E423-17. All bacteria were cultivated in tryptic soy broth (TSB) at 37 °C, 220 rpm.
(§3) The antibacterial activity of peptides was evaluated using a standard broth microdilution protocol with minor modifications. In brief, peptides were made at various concentrations, 10 μL per well in a 96-well polystyrene microplate. Logarithmic phase bacterial cultures (i.e., optical density (OD) at 600 nm ≈ 0.5) were diluted to 0.001 OD, and aliquots of 90 μL were added to each well. Untreated bacterial culture and medium were included as positive and negative controls, respectively. Plates were incubated at 37 °C overnight and read at 630 nm using a ChroMate Microplate Reader (Awareness Technology, Palm City, FL, USA). […] Our previously designed peptide 17BIPHE2 [32] was included as a positive control, and RI-10, a peptide without antibacterial activity in rich media, was utilized as a negative control.

S. aureus USA300 = assay type: cell-based, Staphylococcus aureus
Experimental: as §2, §3

P. aeruginosa E411-17 = assay type: cell-based, Pseudomonas aeruginosa; conditions: for MIC: E411-17
Experimental: as §2, §3

A. baumannii B28-16 = assay type: cell-based, Acinetobacter baumannii
Experimental: as §2, §3

[5] = tested on: S. aureus USA300 LAC preformed biofilms; assay: Disruption of preformed biofilms (XTT); assay type: cell-based, Staphylococcus aureus; conditions: for Antibiofilm effect on 24 h preformed biofilms: 24 h preformed biofilms of S. aureus USA300, XTT
Experimental: as §1

E. coli E423-17 = assay type: cell-based, Escherichia coli
Experimental: as §2, §3

S. aureus USA300 LAC [6] = assay: Membrane permeabilization (propidium iodide); assay type: cell-based, Staphylococcus aureus; conditions: peptide 8 µM; propidium iodide fluorescence, 2 h, PBS, 37 °C
Experimental: Membrane permeabilization was evaluated as described. In brief, bacteria were inoculated and grown overnight. A second inoculation was made and let bacteria grow to the exponential phase. Bacteria were then spun, washed, and resuspended in the same volume of PBS. A series of peptide solutions (10×) was made via two-fold dilution in a 96-well plate (10 µL each). All wells were aliquoted with 2 µL of propidium iodide (20 µM), followed by adding 88 µL of S. aureus USA300 or A. baumannii B28-16 (OD600 ~0.11 in PBS). The plate was incubated at 37 °C with continuous shaking at 100 rpm in a FLUOstar Omega microplate reader (BMG Labtech Inc., Cary, NC, USA). Fluorescence was recorded every 5 min for 2 h with excitation and emission wavelengths of 485 and 620 nm. The data were analyzed by the vendor’s software using averaged values from duplicated experiments.

[7] = 2% hRBCs in saline, 37 °C, tested 12.5–200 µM

## CC[C@H](C)[C@H](NC(=O)[C@H](CCCCN)NC(=O)[C@H](CCC(=O)O)NC(=O)[C@H](CCCCN)NC(=O)[C@H](CO)NC(=O)[C@H](CCCCN)NC(=O)[C@H](CCCNC(=N)N)NC(=O)[C@H](Cc1ccccc1)NC(=O)[C@H](Cc1ccccc1)NC(=O)[C@H](CC(=O)O)NC(=O)CNC(=O)[C@H](CC(C)C)NC(=O)[C@@H](N)CC(C)C)C(=O)NCC(=O)N[C@@H](CCCCN)C(=O)N[C@@H](CCC(=O)O)C(=O)N[C@@H](Cc1ccccc1)C(=O)N[C@@H](CCCCN)C(=O)N[C@@H](CCCNC(=N)N)C(=O)N[C@H](C(=O)N[C@H](C(=O)N[C@@H](CCC(N)=O)C(=O)N[C@@H](CCCNC(=N)N)C(=O)N[C@H](C(=O)N[C@@H](CCCCN)C(=O)N[C@@H](CC(=O)O)C(=O)N[C@@H](Cc1ccccc1)C(=O)N[C@@H](CC(C)C)C(=O)N[C@@H](CCCNC(=N)N)C(=O)N[C@@H](CC(N)=O)C(=O)N[C@@H](CC(C)C)C(=O)N[C@H](C(=O)N1CCC[C@H]1C(=O)N[C@@H](CCCNC(=N)N)C(=O)N[C@H](C(=O)N[C@@H](CCC(=O)O)C(=O)N[C@@H](CO)C(=O)O)[C@@H](C)O)C(C)C)[C@@H](C)CC)C(C)C)[C@@H](C)CC [LL-37]
S. aureus USA300 LAC [1]
  Membrane depolarization ability (order, words): GI-20 > 17BIPHE2 > GF-17~SK-24 > LL-37
[2]
  tHPLC (HPLC retention time): 12.548 min
E. faecium V284-17; E. faecium V284-17, 100% TSB, 37 °C overnight, read at 630 nm
  MIC: 32 µM (≈ 144 µg/mL)
Human red blood cells; [7]
  HC50 (50% hemolytic concentration): ~ 175 µM
  Hemolytic activity: no hemolysis below 100 µM
Human red blood cells; peptide 200 µM, 2% hRBCs in saline, 37 °C, read at 545 nm
  Hemolysis: 70%
[3]
  Disruption of 24 h preformed biofilms (words, found previously): neither LL-37 nor RI-10 was able to disrupt
[4]; biofilms formed for 24, 48 and 72 h, peptide at 8, 16, 32 or 64 μM for 24 h
  Disruption of preformed biofilms: unable to disrupt

## GFKRIVQRIKDFLRNLV-NH2 (C-terminus assumed) [GF-17]
K. pneumoniae E406-17
  MIC: >32 µM
S. aureus USA300 LAC [1]
  Membrane depolarization ability (order, words): GI-20 > 17BIPHE2 > GF-17~SK-24 > LL-37
[2]
  tHPLC (HPLC retention time): 12.197 min
E. faecium V284-17; V284-17
  MIC: 2 µM
Human red blood cells; red cells of human
  HC50 (50% hemolytic concentration): ~ 175 µM
[3]
  Disruption of 24 h preformed biofilms (words, found previously): highly effective
S. aureus USA300
  MIC: 2 to 4 µM
P. aeruginosa E411-17
  MIC: 16 µM
A. baumannii B28-16
  MIC: 4 µM
[4]
  Biofilm disruption: 30–50%
  Disruption of 48 h biofilms: dose-dependent biofilm disruption
  Reduction of 24 h biofilms: dose-dependent manner
[5]
  Antibiofilm effect on 24 h preformed biofilms: antibiofilm effect in a dose-dependent manner
E. coli E423-17
  MIC: 16 µM

## SKEKIGKEFKRIVQRIKDFLRNLV-NH2 [SK-24]
K. pneumoniae E406-17
  MIC: ≥32 µM
K. pneumoniae E406-17; K. pneumoniae E406-17, peptide 32 μM
  Effect on growth at 32 μM: poor effect
S. aureus USA300 LAC [1]
  Membrane depolarization ability (order, words): GI-20 > 17BIPHE2 > GF-17~SK-24 > LL-37
S. aureus USA300 LAC [1]; peptide 4, 8, 16 and 32 µM
  Membrane depolarization, dose dependence: dose-dependent manner
[2]
  tHPLC (HPLC retention time): 12.291 min
Human red blood cells; red cells of human
  HC50 (50% hemolytic concentration): greater than 200 µM
S. aureus USA300 LAC [6]
  Membrane permeation: weakly permeated
P. aeruginosa E411-17
  MIC: >32 µM
P. aeruginosa E411-17; P. aeruginosa E411-17, peptide 32 μM
  Effect on growth at 32 μM: poor effect
[4]
  Biofilm disruption: ~ 70%
  Disruption of 48 h biofilms: dose-dependent biofilm disruption
  Reduction of 24 h biofilms: dose-dependent manner
[5]
  Antibiofilm effect on 24 h preformed biofilms: antibiofilm effect in a dose-dependent manner
[5]; 24 h preformed biofilms, peptide 32 μM, relative to untreated control = 100%
  Staphylococcal biofilm remaining (reduced to): ~ 25%
E. coli E423-17
  MIC: 16 µM
